Assay results as given in patent US20170065561A1, “METHODS OF CANCER THERAPY” (CAMBRIDGE ENTERPRISE LIMITED, priority 2014, published 2017).
“Also recorded” adds a separate entry of the source.

What was measured:
[1] = tested on: type 1 (non-neuronopathic) Gaucher disease; conditions: type 1 Gaucher disease; cited from earlier work
[2] = tested on: plasma glucosylceramide (GL-1); assay: Short-term dose-range experiment in GD mice: plasma glucosylceramide; assay type: in vivo, mouse; conditions: 6 week-old GD mice, 150 mg/kg and 300 mg/kg orally for two weeks
Description: (§1) The inducible mouse model of type 1 Gaucher disease [Gba^tm1Karl/tm1KarlTg (Mx1-cre) 1Cgn/0 (MGI:3687965; MGI:2176073)[41]. The mating, induction with polyinosinic-polycytidylic (poly I:C) acid sodium salt solution and genotyping were conducted as previously described. Animals of genotype Gba^tm1Karl/tm1KarlTg (Mx1-cre) 1Cgn/0 are referred GD mice; induced mice with the Gba^tm1Karl/tm1Karl and Gba^tm1Karl/+ genotypes and background strain wild type animals served as age-matched controls. All mice here reported had been bred on a C57BL/6 and 129/sv background.
The drug GENZ 112638 (Genzyme) was formulated in a standard rodent food (TestDiet) at 0.075% and 0.15% w/w. A group of six GD mice received 150 mg/kg daily, a second group of six GD mice received the drug at 300 mg/kg daily, and eight age-sex matched GD animals were given a base diet (TestDiet). The animals received the drug for 14 days and were then killed for analysis of tissue lipids.
(§2) Concentrations of β-D-glucosylceramide in plasma in the short-term tolerability study were conducted as previously published. β-D-glucosylceramide, β-D-glucosylsphingosine and ceramide concentrations in tissues and plasma samples of the principal intervention and delayed-treatment experiments were quantified as previously reported.

[3] = tested on: plasma β-D-glucosylsphingosine; assay: Main treatment experiments in GD mice: plasma glucosylsphingosine; assay type: in vivo, mouse; conditions: for plasma glucosylsphingosine: GD mice with intermittent treatment; for reduction of plasma glucosylsphingosine: 300 mg/kg/day
Description: as §1
(§3) GENZ 112638 was introduced at a mean age of 1.5 months, with access to the diet and water ad libitum. All experimental animals were housed in individually ventilated cages in groups of up to three mice within the same environmental conditions. The health of the animals was checked daily; body weights and food consumption were monitored at intervals of three days. The humane endpoints were approved and established: (i) reduction of 20% or more of the greatest recorded body weight or (ii) the development of adverse manifestations (e.g. development of frank tumours or cachexia).
as §2

[4] = tested on: plasma β-D-glucosylceramide; assay: Main treatment experiments in GD mice: plasma glucosylceramide; assay type: in vivo, mouse
Description: as §1, §3, §2

[5] = tested on: plasma ceramide; assay: Main treatment experiments in GD mice: plasma ceramide; assay type: in vivo, mouse; conditions: GD mice receiving the high dose
Description: as §1
as §3, with “All experimental animals were housed in individually ventilated cages in groups of up to three mice within the same environmental conditions.” left out
as §2

[6] = mouse, in vivo, 300 mg/kg
Source text: as §3

[7] = tested on: Gaucher mice; assay: Main treatment experiments: lymphoma incidence in Gaucher mice; assay type: in vivo, mouse
Description: (§4) The non-parametric Mann-Whitney test was used for between-groups comparisons. The Fisher's exact test was used for comparison of the occurrence of lymphoma or plasma paraprotein in treated and untreated groups. Statistical analyses were conducted using GraphPad Prism v5.0 software.

[8] = tested on: Gaucher mice; assay: Main treatment experiments: plasma/serum protein electrophoresis and immunofixation (monoclonal immunoglobulin species); assay type: in vivo, mouse; conditions: for detectable monoclonal paraprotein species: GD mice, early administration from six weeks of age; for M-protein (number of mice): 300 mg/Kg daily months 1.5-12
Description: (§5) Plasma/serum protein electrophoresis was carried out in agarose gels using a semiautomatic system (Hydrasys, Sebia) using 10 μL samples of neat serum or plasma. Immunofixation using polyclonal anti-sera raised against murine heavy and light immunoglobulin chains was conducted with diluted serum samples as previously reported.
as §4

[9] = tested on: plasma IgG; assay: Total IgG plasma concentrations (ELISA); assay type: in vivo, mouse; conditions: treated GD mice
Source text: Total IgG ELISA kit (Affimetrix) was used to determine plasma IgG concentrations in selected groups of animals.

[10] = tested on: plasma glucosylceramide; assay: Delayed treatment experiments: plasma glucosylceramide; assay type: in vivo, mouse; conditions: delayed treatment: mean age 7.3 months, 300 mg/kg daily for 5.4 months
Description: (§6) To investigate the potential effects of delayed treatment, eight Gaucher mice were exposed to Genz-112638 after 6 months of age. The animals received the drug for 6 months at a dose 300 mg/kg daily and were killed at 12 months of age (FIG. 1). A group of eight matched Gaucher disease control mice were given the base standard diet; these animals were monitored and otherwise treated identically with those animals with delayed exposure to the study drug.
as §2

[11] = tested on: plasma glucosylsphingosine; assay: Delayed treatment experiments: plasma glucosylsphingosine; assay type: in vivo, mouse; conditions: delayed treatment: mean age 7.3 months, 300 mg/kg daily for 5.4 months
Description: as §6, §2

[12] = tested on: GD mice; assay: Delayed treatment experiments: lymphoid hyperplasia and lymphoma (histology); assay type: in vivo, mouse; conditions: delayed treatment: 300 mg/Kg daily, mean age 7.3 months, 5.4 months, total 9 mice
Description: as §6

[13] = tested on: GD mice; assay: Delayed treatment experiments: M protein species (electrophoresis and immunofixation); assay type: in vivo, mouse; conditions: delayed treatment: 300 mg/Kg daily months 7-12, age group 12-18 months
Description: as §6, §5

[14] = biological target: T1, UDP-glucosylceramide synthase (Homo sapiens, UniProt Q16739); conditions: read-out: IC50 (potency, UDP-glucosylceramide synthase); cited from earlier work
T1 sequence (Q16739 1-394): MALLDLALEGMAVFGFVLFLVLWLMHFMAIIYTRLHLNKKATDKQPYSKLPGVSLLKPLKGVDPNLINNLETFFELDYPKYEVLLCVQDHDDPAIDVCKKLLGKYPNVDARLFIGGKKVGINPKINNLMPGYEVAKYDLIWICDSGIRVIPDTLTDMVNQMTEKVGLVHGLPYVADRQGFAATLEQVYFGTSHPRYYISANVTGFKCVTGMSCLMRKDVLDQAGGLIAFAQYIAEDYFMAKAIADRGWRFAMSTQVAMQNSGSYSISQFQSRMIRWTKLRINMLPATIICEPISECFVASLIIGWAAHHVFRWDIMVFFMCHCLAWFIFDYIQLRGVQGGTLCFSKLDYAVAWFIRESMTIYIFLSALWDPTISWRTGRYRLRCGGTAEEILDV

[15] = biological target: T2, 1-O-acylceramide synthase (Homo sapiens, UniProt Q8NCC3); conditions: cited from earlier work
T2 sequence (Q8NCC3 34-412): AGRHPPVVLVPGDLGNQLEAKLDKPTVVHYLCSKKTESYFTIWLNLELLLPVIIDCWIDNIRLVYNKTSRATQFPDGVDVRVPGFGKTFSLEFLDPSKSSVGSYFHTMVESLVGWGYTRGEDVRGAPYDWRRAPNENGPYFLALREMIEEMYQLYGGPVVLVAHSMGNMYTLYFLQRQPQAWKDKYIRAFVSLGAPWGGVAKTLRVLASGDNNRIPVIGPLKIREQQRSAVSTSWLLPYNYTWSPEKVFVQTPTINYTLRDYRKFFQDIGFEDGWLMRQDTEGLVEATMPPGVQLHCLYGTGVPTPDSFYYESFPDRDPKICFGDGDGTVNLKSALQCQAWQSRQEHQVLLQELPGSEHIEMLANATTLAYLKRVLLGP

[16] = tested on: intracellular ceramide; conditions: cited from earlier work
[17] = tested on: glycosidases and other enzymes involved in sphingolipid metabolism; conditions: in vitro; cited from earlier work
[18] = tested on: (GBA^D409/null) knock-in model of Gaucher disease; conditions: 75 or 150 mg/kg daily orally for 10 weeks, cited from earlier work
[19] = tested on: individuals with non-neuronopathic Gaucher disease; conditions: Phase III, over two years, oral; cited from earlier work
[20] = tested on: AKT protein kinase-mammalian target of rapamycin signaling; conditions: polycystic kidney disease; cited from earlier work
[21] = in vivo; cited from earlier work
[22] = tested on: GD mice; assay: Main treatment experiments: histology and immunohistochemistry of tissues; conditions: for plasma-cell (CD138+) infiltration in the red pulp of the spleen: treated versus age-matched untreated GD mice
Description: A total of 22 induced Gaucher disease mice received GENZ 112638 at 300 mg/kg daily: four mice received the treatment over 3 months, four mice received the drug for 6 months, six mice received the diet for 7-9 months. […] A group of 8 mice received the drug for 10 months and were killed at 14 months of age. To serve as a control group, 45 age- and sex-matched induced Gaucher mice were given a standard diet.
Visceral organs (spleen, liver, lungs and kidneys) as well as long bones, lymph nodes, and, where relevant, tumours, were collected by dissection and either frozen or fixed in 4% w/v paraformaldehyde or 10% buffered formalin and processed in paraffin-embedded blocks for further analysis. Sample of long bones were fixed in 4% w/v paraformaldehyde and decalcified in EDTA for two weeks. Spleen and liver weights were recorded fresh at post mortem. Samples of venous blood were collected from the tail vein at 3 monthly intervals during the experimental protocol. Complete blood counts (CBC) were determined using an automated haematology analyser (SYSMEX XT 2000i). EDTA plasma or serum samples collected at post mortem were stored at −80° C. until thawed for analysis.
Paraffin-embedded sections of 3.5 μm were stained routinely with haematoxylin and eosin. Immunohistochemical staining was carried out using rat anti-mouse CD45R/B220 (R&D systems), anti-mouse CD3 (Abcam), CD138 (BD, Pharmingen), rat anti-mouse Mac-3 M3/84 clone (BD, Pharmingen) and rabbit anti-mouse Ki-67 (Abcam) primary antibodies. Staining was realized by the avidin-biotin peroxidase technique (Vectastatin ABC elite kit), and developed using diaminobenzidine with cresyl violet or haematoxylin counterstaining.
Lymphoproliferation in serial sections of spleen, liver, lungs and kidneys was estimated by a scoring system modified as described by Elmore [42]. Sections were reviewed blindly for lymphoma and lymphoproliferative reactions by a board-certified veterinary pathologist.

[23] = age group 0-6 months, total 4 mice
[24] = age group 7-12 months, total 10 mice
[25] = age group 13-18 months, total 8 mice

CCCCN1C[C@H](O)[C@@H](O)[C@H](O)[C@H]1CO [N-butyldeoxynojirimycin]
therapeutic action in clinical studies [1]: small therapeutic action

bis{N-[(1R,2R)-2-(2,3-dihydro-1,4-benzodioxin-6-yl)-2-hydroxy-1-(pyrrolidin-1-ylmethyl)ethyl]octanamide} (2R,3R)-2,3-dihydroxybutanedioate [eliglustat tartrate]
plasma glucosylceramide (GL-1) concentration [2]: decrease the concentration of glucosylceramide | plasma glucosylceramide (GL-1) concentration ([2]; listed as GENZ 112638): dose-dependent decrease | plasma glucosylsphingosine ([3]; listed as GENZ 112638): raised above the reference range | plasma glucosylsphingosine ([3]; listed as Genz-112638): not significantly different | plasma β-D-glucosylsphingosine concentration ([3]; GD mice, 300 mg/kg daily, early continuous treatment, listed as GENZ 112638, 300 mg/kg): decreased; also recorded: notable decrease | reduction of plasma glucosylsphingosine ([3]; GD mice, after 6 months of treatment, p<0.01): ~5 fold | reduction of plasma glucosylsphingosine ([3]; GD mice, after 9 months of treatment, p<0.05): ~2 fold | glucosylceramide concentration in plasma ([4]; GD mice with intermittent treatment for 10 months, listed as GENZ 112638): raised above the reference range | glucosylceramide concentration in plasma ([4]; GD mice with intermittent treatment for 10 months, listed as Genz-112638): increased plasma concentration | plasma β-D-glucosylceramide concentration ([4]; GD mice, 300 mg/kg daily, early continuous treatment): decreased | glucosylceramide concentration in plasma ([4]; GD mice, after 10 months treatment, p<0.01): reduced | glucosylceramide/ceramide ratio ([4]; treated GD animals compared with untreated): markedly diminished | mean plasma ceramide concentrations [5]: slightly increased | animals withdrawn early from the study as a result of weight loss [6]: Two | occurrence of B cell lymphoma, myeloma or other tumours ([7]; 22 Gaucher mice exposed for 2-10 months, 300 mg/kg, early administration, listed as GENZ 112638, 300 mg/kg): No B cell lymphomas or other tumours were found; also recorded: completely prevented | Lymphoma (number of mice) [7, 23]: 0 | Lymphoma (number of mice) [7, 24]: 0 | Lymphoma (number of mice) [7, 25]: 0 | Lymphoma (number of mice) ([7]; all age groups, total 22 mice): 0 | detectable monoclonal paraprotein species ([8]; listed as GENZ 112638): suppressed the appearance | detectable monoclonal paraprotein species ([8]; listed as Genz-112638): none and prevents development of monoclonal paraproteins | M-protein (number of mice) [8, 23]: 0 | M-protein (number of mice) [8, 24]: 0 | M-protein (number of mice) [8, 25]: 0 | M-protein (number of mice) ([8]; all age groups, total 22 mice): 0 | total plasma immunoglobulin G concentrations [9]: decreased significantly | plasma concentration of glucosylceramide [10]: decreased | plasma concentration of glucosylsphingosine [11]: decreased | Lymphoid hyperplasia (number of mice) [12]: 4 | Lymphoma/myeloma (number of mice) [12]: 1 | Lymphoid hyperplasia (number of mice) ([12]; listed as GENZ 112638): five | Lymphoma/myeloma (number of mice) ([12]; listed as GENZ 112638): one and did not completely prevent | M protein (number of mice with monoclonal paraprotein or oligoclonal immunoglobulin secretion) [13]: 5 | M protein (number of mice with monoclonal paraprotein or oligoclonal immunoglobulin secretion) ([13]; listed as GENZ 112638): five | IC50 [14]: 24 nM | inhibition of 1-O-acylceramide synthase [15]: does not inhibit 1-O-acylceramide synthase | intracellular ceramide levels [16]: does not inhibit 1-O-acylceramide synthase or increase intracellular ceramide levels | inhibitory properties towards glycosidases and other enzymes involved in sphingolipid metabolism [17]: minimal inhibitory properties | glucosylceramide in tissues ([18]; 10 week-old and 7 month-old mice): dose-dependent reduction | infiltration of abnormal macrophages in tissues [18]: decreased infiltration | key clinical manifestations of the disease [19]: clearly improved | AKT protein kinase-mTOR signaling and cell-cycle control [20]: repress | safety and tolerability [21]: safe and tolerable | Ki-67 staining (proliferation marker), spleen ([22]; GD mice treated for 10 months, listed as Genz-112638): less evident; also recorded: decreased population of lymphoid cells | lipid-engorged macrophages in tissue sections ([22]; GD mice, liver and spleen): fewer lipid-engorged macrophages | pathological macrophages staining for the Mac 3 antigen ([22]; tissues of GD mice, listed as GENZ 112638): markedly decreased or absent; also recorded: prevented the florid appearance of pathological macrophages | cellularity of the spleens ([22]; treated Gaucher mice): slight decrease | plasma-cell (CD138+) infiltration in the red pulp of the spleen ([22]; listed as GENZ 112638): less evident | plasma-cell (CD138+) infiltration in the red pulp of the spleen ([22]; listed as Genz-112638): decreased number of CD138^+ lymphocytes | inflammatory changes in the liver, lungs and kidneys ([22]; treated versus untreated GD mice): reduced or absent | splenic architecture (H&E; B220/CD3 staining) ([22]; treated versus untreated GD mice, listed as GENZ 112638): preservation of the splenic architecture | splenic architecture (H&E; B220/CD3 staining) ([22]; treated versus untreated GD mice, listed as Genz-112638): preserved white pulp architecture | spleen and liver weights ([22]; treated versus untreated Gaucher mice): did not differ
